Laboratory results from patent US8754067B2, “22-haloacetoxy-homopregnacalciferol analogs and their uses” (Wisconsin Alumni Research Foundation, priority 2010, dated 2014).

Legend:
[1] = system: intestinal calcium transport; assay: Intestinal calcium transport (everted gut sac) in vitamin D-deficient rats; type: in vivo, rat; conditions: 4 consecutive ip doses, FIG. 8
Protocol: (§1) Male, weanling Sprague-Dawley rats were placed on Diet 11 (Suda et al, J. Nutr. 100:1049, 1970) (0.47% Ca)+AEK oil for one week followed by Diet 11 (0.02% Ca)+AEK oil for 3 weeks. The rats were then switched to the same diet containing 0.47% Ca for one week followed by two weeks on the same diet containing 0.02% Ca. Dose administration began during the last week on 0.02% calcium diet. Four consecutive intraperitoneal (ip) doses were given approximately 24 hours apart. Twenty-four hours after the last dose, blood was collected from the severed neck and the concentration of serum calcium determined by atomic absorption spectrometry as a measure of bone calcium mobilization. The first 10 cm of the intestine was also collected for intestinal calcium transport analysis using the everted gut sac method.

HL-60 leukemia cells [2] = assay: Cell viability, HL-60 leukemia cells; type: cell-based, human; conditions: four days growth, methylene blue; FIG. 4A/4B
Protocol: (§2) Various cell lines were plated, administered a range of drug concentrations one time, allowed to grow for four days and then the number of cells present counted and expressed as a percentage of those present in the vehicle control plates. […] The number of live cells was expressed as a percentage of the total present. Each assay was done in duplicate.

[3] = system: bone calcium mobilization; assay: Bone calcium mobilization (serum calcium) in vitamin D-deficient rats; type: in vivo, rat; conditions: vitamin D-deficient rats on 0.02% Ca diet, FIG. 7
Protocol: as §1

[4] = Body weight of dosed animals; type: in vivo, rat; conditions: various doses, throughout the test period; FIG. 9
Protocol: as §1

HL-60 leukemia cells [5] = assay: HL-60 differentiation (nitro blue tetrazolium reduction); type: cell-based, human; conditions: FIG. 2
Protocol: The study drugs were dissolved in ethanol and the concentrations determined using UV spectrophotometry. Serial dilutions were prepared so that a range of drug concentrations could be tested without changing the final concentration of ethanol (≦0.2%) present in the cell cultures.
Human promyelocytic leukemia (HL60) cells were grown in RPMI-1640 medium containing 10% fetal bovine serum. The cells were incubated at 37° C. in the presence of 5% CO2.
HL60 cells were plated at 1.2×10^5 cells/ml. Eighteen hours after plating, cells in duplicate were treated with drug. Four days later, the cells were harvested and a nitro blue tetrazolium reduction assay was performed (Collins et al., 1979; J. Exp. Med. 149:969-974). The percentage of differentiated cells was determined by counting a total of 200 cells and recording the number that contained intracellular black-blue formazan deposits. Verification of differentiation to monocytic cells was determined by measuring phagocytic activity (data not shown).

[6] = biological target: T1, full-length recombinant rat vitamin D receptor (Rattus norvegicus, UniProt P13053); assay: Vitamin D receptor binding, competition with [3H]-1,25(OH)2D3; conditions: FIG. 1
T1 construct: Full-length recombinant rat receptor was expressed in E. coli; histidine tag (C); made in house; host or cells: E. coli BL21 (DE3) Codon Plus RIL
T1 sequence (P13053 1-423): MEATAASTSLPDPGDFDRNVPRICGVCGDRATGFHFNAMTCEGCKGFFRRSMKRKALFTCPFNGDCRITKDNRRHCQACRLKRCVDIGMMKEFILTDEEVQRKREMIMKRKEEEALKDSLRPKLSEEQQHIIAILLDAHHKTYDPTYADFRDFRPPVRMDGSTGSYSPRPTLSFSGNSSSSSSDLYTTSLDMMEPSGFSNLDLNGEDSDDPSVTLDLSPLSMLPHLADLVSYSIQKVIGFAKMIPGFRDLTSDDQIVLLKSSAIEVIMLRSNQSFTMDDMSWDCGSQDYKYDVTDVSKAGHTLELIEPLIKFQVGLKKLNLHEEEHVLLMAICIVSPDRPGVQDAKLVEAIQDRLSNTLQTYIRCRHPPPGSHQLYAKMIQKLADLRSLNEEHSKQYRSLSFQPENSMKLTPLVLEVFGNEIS
Protocol: Full-length recombinant rat receptor was expressed in E. coli BL21 (DE3) Codon Plus RIL cells and purified to homogeneity using two different column chromatography systems. The first system was a nickel affinity resin that utilizes the C-terminal histidine tag on this protein. The protein that was eluted from this resin was further purified using ion exchange chromatography (S-Sepharose Fast Flow). Aliquots of the purified protein were quick frozen in liquid nitrogen and stored at −80° C. until use. For use in binding assays, the protein was diluted in TEDK50 (50 mM Tris, 1.5 mM EDTA, pH7.4, 5 mM DTT, 150 mM KCl) with 0.1% Chaps detergent. The receptor protein and ligand concentration was optimized such that no more than 20% of the added radiolabeled ligand was bound to the receptor.
Radiolabeled and unlabeled ligands were added to 100 mcl of the diluted protein at a final ethanol concentration of ≦10%, mixed and incubated overnight on ice to reach binding equilibrium. The following day, 100 mcl of hydroxylapatite slurry (50%) was added to each tube and mixed at 10-minute intervals for 30 minutes. […] After the final wash, the pellets were transferred to scintillation vials containing 4 ml of Biosafe II scintillation cocktail, mixed and placed in a scintillation counter. Total binding was determined from the tubes containing only radiolabeled ligand.

[7] = system: 24-hydroxylase (24 Ohase) gene promoter in ROS 17/2.8 (bone) cells; assay: In vitro transcription assay (luciferase reporter); type: cell-based; conditions: ROS 17/2.8 cells, 16 hours after dosing; FIG. 3; read-out: EC50, transcriptional activity in bone cells
Protocol: Transcription activity was measured in ROS 17/2.8 (bone) cells that were stably transfected with a 24-hydroxylase (24 Ohase) gene promoter upstream of a luciferase reporter gene (Arbour et al., 1998). Cells were given a range of doses. Sixteen hours after dosing the cells were harvested and luciferase activities were measured using a luminometer. RLU=relative luciferase units.

[8] = system: H-82 lung carcinoma cells; assay: Cell viability, H-82 lung carcinoma cells; type: cell-based; conditions: four days growth, methylene blue; FIG. 5A/5B
Protocol: as §2

DU-145 prostate cells = assay: Cell viability, DU-145 prostate cells; type: cell-based; conditions: four days growth, methylene blue; FIG. 6A/6B
Protocol: as §2

| SMILES | intestinal calcium transport activity ([1]; 35,100 pmol/rat) | cell viability of HL-60 leukemia cells (HL-60 leukemia cells [2]) | bone calcium mobilization (serum calcium) ([3]; 105,300 pmol/day ip for 4 consecutive days) | change in body weight [4] | HL-60 cell differentiation activity (HL-60 leukemia cells [5]) | Ki ([6]; full-length recombinant rat VDR) | times less active than 1α,25-dihydroxyvitamin D3 in VDR binding ([6]; relative to natural hormone) | EC50 [7] | cell viability of H-82 lung carcinoma cells [8] | cell viability of DU-145 prostate cells (DU-145 prostate cells) | intestinal calcium transport activity ([1]; 780 pmol) | bone calcium mobilization (serum calcium) ([3]; 780 pmol, 4 consecutive ip doses) | EC50 (HL-60 leukemia cells [5]; four days after treatment, read-out: EC50, HL-60 cell differentiation) |
| --- | --- | --- | --- | --- | --- | --- | --- | --- | --- | --- | --- | --- | --- |
| C=C1CC[C@H](O)C/C1=C/C=C1\CCC[C@]2(C)[C@@H]([C@H](C)COC(=O)CBr)CC[C@@H]12 [AB-47, 22-bromoacetoxy-homopregnacalciferol] | little to no activity | kills HL-60 leukemia cells | little or no mobilization of bone calcium | substantially maintain their body weight | does not promote HL60 differentiation | 3 nM | 100 times | > 1000 nM | kills H-82 lung carcinoma cells | neither AB-47 nor 1,25(OH)2D3 have any significant effect |  |  |  |
| C=C1/C(=C\C=C2/CCC[C@]3(C)[C@@H]([C@H](C)CCCC(C)(C)O)CC[C@@H]23)C[C@@H](O)C[C@@H]1O [1,25(OH)2D3, 1α,25-dihydroxyvitamin D3, reference compound] |  | does not have any significant effect |  |  |  |  |  |  | does not have any significant effect | neither AB-47 nor 1,25(OH)2D3 have any significant effect | significant increase in activity | significant increases in serum calcium | 2 nM |
